Measurements: paper PMC10004634 (PLOS ONE, 2023)
Like-named read-outs stand apart in the source and are kept apart here.

Key:
Test in all cases: biochemical
Parameters in all cases: KINOMEscan scanMAX competition binding, DNA-tagged kinases, qPCR read-out, percent control at 300 nM
FER = FER (Homo sapiens, UniProt P16591)
SLK = SLK (Homo sapiens, UniProt Q9H2G2)
RIOK3 = molecular target: T1, RIOK3 (Homo sapiens, UniProt O14730)
T1 sequence (O14730 1-519): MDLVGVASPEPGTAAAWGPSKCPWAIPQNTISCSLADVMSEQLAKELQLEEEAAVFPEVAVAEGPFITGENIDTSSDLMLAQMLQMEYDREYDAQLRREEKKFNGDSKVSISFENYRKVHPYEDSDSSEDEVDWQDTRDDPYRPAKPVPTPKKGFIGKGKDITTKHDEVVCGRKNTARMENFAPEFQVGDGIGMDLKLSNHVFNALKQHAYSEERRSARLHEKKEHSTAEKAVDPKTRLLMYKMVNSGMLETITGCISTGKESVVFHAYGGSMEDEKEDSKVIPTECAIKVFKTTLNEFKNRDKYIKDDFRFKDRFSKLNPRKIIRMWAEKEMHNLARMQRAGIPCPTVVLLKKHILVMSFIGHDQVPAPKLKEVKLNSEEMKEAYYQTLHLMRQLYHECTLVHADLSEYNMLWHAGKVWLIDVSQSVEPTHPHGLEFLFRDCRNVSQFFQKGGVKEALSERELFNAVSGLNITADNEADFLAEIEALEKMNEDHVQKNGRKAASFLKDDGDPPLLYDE

[1] = molecular target: T2, JAK1(JH2domain-pseudokinase) (Homo sapiens, UniProt P23458)
T2 construct: JH2domain-pseudokinase
T2 sequence (P23458 whole entry): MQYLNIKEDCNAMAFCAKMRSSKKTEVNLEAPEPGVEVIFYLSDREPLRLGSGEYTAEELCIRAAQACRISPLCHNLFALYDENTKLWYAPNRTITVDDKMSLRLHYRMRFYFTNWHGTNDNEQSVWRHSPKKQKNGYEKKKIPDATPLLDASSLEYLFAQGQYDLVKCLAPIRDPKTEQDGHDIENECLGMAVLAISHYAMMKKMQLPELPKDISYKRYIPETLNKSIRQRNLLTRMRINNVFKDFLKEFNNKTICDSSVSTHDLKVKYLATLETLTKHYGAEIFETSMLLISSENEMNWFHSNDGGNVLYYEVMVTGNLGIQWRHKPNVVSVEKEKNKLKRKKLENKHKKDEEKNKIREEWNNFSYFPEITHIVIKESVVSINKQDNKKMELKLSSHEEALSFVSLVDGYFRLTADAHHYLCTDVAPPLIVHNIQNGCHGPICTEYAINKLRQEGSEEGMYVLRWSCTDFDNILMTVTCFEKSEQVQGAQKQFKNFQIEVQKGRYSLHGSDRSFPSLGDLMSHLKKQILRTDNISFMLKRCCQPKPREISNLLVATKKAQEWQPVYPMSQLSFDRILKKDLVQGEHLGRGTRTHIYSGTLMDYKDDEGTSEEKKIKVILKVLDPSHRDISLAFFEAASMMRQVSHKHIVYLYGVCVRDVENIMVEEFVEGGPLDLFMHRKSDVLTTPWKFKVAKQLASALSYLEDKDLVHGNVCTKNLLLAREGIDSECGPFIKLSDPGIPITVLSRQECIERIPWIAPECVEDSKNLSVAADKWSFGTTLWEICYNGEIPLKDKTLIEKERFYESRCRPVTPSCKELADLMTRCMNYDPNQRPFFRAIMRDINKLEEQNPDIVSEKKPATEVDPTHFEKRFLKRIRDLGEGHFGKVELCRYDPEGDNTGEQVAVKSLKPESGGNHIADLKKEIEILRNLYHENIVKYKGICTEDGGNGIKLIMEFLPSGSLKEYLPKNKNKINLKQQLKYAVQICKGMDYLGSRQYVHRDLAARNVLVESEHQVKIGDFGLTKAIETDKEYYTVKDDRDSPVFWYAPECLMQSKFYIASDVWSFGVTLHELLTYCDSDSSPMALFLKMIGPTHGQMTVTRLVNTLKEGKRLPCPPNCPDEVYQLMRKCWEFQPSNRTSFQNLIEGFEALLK

MET(M1250T) = MET(M1250T) (Homo sapiens, UniProt P08581, M1250T)
Sequence of MET(M1250T) (P08581 whole entry M1250T): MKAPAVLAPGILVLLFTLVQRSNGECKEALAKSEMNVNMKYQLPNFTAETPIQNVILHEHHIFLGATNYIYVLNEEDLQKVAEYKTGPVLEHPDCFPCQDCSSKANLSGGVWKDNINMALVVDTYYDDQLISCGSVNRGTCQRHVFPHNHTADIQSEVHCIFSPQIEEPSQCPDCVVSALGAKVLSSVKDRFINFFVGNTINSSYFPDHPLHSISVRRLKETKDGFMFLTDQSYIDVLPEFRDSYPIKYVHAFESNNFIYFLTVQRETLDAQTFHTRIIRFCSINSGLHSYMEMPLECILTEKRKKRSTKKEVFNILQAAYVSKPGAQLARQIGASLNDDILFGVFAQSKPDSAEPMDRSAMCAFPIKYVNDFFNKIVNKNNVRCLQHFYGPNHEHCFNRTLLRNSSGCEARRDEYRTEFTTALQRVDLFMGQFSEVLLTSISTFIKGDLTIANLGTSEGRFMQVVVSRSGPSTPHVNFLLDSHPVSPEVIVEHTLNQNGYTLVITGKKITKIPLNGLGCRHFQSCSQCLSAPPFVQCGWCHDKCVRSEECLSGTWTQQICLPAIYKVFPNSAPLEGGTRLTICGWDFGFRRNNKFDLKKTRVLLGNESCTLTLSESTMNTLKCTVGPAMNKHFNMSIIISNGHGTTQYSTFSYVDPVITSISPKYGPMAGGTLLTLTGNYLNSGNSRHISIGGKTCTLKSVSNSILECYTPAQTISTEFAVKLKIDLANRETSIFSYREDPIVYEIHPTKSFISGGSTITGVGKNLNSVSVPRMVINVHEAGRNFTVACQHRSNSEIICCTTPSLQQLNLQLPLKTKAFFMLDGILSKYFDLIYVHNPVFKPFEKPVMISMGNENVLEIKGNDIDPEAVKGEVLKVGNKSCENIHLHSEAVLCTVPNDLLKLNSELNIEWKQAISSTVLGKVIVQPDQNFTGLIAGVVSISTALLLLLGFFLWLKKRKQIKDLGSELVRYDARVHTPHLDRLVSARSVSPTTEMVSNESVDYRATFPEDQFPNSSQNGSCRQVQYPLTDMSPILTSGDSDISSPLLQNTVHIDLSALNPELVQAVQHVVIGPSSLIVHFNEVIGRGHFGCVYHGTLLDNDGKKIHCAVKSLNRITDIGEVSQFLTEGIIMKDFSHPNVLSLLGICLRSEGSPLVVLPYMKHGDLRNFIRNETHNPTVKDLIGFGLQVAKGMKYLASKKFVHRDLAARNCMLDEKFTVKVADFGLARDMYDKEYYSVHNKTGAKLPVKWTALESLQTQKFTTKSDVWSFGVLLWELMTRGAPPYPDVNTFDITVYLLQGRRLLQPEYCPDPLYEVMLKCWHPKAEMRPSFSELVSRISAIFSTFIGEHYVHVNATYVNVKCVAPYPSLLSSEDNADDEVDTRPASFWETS

p38-delta = molecular target: T3, p38-delta (Homo sapiens, UniProt O15264)
T3 construct: gene MAPK13
T3 sequence (O15264 1-365): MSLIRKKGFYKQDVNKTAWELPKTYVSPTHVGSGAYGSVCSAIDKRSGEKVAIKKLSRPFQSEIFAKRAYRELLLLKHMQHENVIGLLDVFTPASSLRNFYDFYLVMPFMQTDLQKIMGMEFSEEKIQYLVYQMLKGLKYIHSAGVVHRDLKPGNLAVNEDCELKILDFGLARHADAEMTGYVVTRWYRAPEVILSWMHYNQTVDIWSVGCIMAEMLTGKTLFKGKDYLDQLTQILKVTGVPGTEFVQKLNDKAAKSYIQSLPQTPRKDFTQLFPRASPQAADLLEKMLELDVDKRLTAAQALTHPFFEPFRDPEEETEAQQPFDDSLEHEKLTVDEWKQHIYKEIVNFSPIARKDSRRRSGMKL

IRAK3 = molecular target: T4, IRAK3 (Homo sapiens, UniProt Q9Y616)
T4 sequence (Q9Y616 1-596): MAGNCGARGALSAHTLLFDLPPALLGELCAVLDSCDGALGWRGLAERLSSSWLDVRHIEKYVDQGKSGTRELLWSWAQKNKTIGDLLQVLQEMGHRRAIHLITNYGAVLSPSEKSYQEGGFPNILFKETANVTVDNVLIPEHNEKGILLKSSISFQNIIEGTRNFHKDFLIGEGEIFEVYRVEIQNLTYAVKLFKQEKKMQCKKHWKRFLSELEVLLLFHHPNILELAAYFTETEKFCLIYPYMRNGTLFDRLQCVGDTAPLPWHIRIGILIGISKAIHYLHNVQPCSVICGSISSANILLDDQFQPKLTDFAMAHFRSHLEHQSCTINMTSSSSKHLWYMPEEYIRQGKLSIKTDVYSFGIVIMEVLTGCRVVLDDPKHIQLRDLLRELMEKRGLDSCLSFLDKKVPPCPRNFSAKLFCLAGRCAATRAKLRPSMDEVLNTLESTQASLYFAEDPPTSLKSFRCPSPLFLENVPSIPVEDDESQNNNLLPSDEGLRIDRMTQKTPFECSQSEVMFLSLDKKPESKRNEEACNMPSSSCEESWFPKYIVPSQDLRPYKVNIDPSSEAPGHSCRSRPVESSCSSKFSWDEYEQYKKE

TRKA = molecular target: T5, TRKA (Homo sapiens, UniProt P04629)
T5 construct: gene NTRK1

VEGFR2 = molecular target: T6, VEGFR2 (Homo sapiens, UniProt P35968)
T6 construct: gene KDR
T6 sequence (P35968 whole entry): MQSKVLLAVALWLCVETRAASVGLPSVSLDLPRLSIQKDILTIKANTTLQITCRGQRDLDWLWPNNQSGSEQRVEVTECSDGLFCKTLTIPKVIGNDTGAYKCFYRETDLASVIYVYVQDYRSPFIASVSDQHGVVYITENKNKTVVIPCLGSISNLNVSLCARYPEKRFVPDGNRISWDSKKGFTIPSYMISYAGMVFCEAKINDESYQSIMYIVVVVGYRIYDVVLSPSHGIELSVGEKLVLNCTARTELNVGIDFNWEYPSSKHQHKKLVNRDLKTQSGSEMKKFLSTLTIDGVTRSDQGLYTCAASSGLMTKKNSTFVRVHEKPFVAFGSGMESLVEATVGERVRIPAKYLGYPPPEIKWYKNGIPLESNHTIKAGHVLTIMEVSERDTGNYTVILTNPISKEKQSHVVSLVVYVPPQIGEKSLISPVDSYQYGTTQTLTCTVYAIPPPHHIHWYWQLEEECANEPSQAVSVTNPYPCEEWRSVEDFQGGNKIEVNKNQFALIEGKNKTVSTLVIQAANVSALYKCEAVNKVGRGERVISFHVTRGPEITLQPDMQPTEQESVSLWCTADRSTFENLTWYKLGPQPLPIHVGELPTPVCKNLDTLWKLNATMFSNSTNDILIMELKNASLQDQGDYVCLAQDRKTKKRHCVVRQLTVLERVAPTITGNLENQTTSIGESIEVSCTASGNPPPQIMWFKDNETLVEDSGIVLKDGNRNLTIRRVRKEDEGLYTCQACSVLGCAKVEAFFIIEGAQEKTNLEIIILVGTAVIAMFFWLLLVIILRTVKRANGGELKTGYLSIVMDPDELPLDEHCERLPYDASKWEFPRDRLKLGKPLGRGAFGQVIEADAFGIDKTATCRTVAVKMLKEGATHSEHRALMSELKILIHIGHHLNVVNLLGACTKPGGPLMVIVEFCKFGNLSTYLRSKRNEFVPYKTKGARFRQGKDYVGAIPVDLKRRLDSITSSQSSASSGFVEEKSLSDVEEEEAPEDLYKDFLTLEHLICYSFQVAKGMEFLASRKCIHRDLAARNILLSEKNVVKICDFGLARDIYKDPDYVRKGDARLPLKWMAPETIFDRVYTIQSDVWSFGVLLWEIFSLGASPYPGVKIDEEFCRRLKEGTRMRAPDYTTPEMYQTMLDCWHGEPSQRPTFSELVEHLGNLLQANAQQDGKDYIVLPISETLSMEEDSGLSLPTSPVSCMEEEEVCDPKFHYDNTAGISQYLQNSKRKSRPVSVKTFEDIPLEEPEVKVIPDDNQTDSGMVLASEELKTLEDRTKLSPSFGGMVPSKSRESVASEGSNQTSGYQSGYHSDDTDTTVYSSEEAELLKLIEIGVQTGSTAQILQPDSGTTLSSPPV

PHKG2 = molecular target: T7, PHKG2 (Homo sapiens, UniProt P15735)
T7 sequence (P15735 1-406): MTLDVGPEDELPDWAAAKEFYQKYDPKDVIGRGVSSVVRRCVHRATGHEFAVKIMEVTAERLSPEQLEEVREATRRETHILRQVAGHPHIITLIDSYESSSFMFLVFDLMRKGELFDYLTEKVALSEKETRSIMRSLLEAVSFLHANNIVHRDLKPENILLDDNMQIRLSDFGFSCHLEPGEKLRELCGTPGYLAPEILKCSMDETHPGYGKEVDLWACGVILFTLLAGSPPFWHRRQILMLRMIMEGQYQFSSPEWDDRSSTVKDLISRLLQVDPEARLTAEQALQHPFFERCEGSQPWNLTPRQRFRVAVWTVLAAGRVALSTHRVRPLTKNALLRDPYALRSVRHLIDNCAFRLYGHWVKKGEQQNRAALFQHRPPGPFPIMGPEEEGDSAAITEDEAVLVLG

[2] = read-out: Percent control / Acalabrutinib
[3] = read-out: Percent control / Ibrutinib
[4] = read-out: Percent control / Tirabrutinib
[5] = read-out: Percent control / Zanubrutinib

Sequence of SLK (Q9H2G2 whole entry): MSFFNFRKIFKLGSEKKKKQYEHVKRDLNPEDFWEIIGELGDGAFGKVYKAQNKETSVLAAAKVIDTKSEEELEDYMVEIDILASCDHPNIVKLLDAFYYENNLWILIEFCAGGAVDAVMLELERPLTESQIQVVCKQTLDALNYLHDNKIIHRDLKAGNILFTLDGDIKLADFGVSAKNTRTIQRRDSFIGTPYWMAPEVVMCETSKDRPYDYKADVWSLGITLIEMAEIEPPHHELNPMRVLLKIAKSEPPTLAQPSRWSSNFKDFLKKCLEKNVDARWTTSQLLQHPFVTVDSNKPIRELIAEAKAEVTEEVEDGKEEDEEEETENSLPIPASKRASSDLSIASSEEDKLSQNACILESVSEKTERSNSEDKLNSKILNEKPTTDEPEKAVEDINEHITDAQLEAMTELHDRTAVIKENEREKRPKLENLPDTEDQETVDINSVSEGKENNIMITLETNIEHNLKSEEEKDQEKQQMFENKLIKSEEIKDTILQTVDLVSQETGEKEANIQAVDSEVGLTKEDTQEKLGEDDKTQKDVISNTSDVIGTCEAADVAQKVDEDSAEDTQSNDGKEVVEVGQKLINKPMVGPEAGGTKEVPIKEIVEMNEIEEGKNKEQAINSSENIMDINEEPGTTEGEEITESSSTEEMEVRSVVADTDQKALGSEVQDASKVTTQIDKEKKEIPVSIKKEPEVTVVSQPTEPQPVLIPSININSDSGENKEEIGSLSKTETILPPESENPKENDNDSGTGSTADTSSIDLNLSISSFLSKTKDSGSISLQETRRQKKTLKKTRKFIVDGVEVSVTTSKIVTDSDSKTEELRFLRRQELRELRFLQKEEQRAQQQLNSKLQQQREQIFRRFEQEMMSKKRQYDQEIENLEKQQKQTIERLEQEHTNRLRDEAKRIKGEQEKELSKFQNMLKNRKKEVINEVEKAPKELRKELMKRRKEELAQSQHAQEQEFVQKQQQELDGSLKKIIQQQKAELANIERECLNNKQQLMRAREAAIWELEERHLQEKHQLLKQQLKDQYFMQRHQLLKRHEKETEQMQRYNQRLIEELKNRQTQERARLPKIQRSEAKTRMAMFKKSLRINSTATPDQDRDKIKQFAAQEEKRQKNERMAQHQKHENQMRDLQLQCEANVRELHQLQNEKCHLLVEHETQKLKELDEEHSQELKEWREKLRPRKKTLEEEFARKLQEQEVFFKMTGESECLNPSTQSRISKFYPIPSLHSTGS

CC#CC(=O)N1CCC[C@H]1c1nc(-c2ccc(C(=O)Nc3ccccn3)cc2)c2c(N)nccn12 [Acalabrutinib]
remaining binding at 0.3 µM (FER; [2]): 84%
remaining binding at 0.3 µM (SLK; [2]): 88%
remaining binding at 0.3 µM (RIOK3; [2]): 90%
remaining binding at 0.3 µM [1, 2]: 99%
remaining binding at 0.3 µM (MET(M1250T); [2]): 93%
remaining binding at 0.3 µM (p38-delta; [2]): 95%
remaining binding at 0.3 µM (IRAK3; [2]): 86%
remaining binding at 0.3 µM (TRKA; [2]): 88%
remaining binding at 0.3 µM (VEGFR2; [2]): 98%

C=CC(=O)N1CCC[C@@H](n2nc(-c3ccc(Oc4ccccc4)cc3)c3c(N)ncnc32)C1 [Ibrutinib]
remaining binding at 0.3 µM (FER; [3]): 94%
remaining binding at 0.3 µM (SLK; [3]): 92%
remaining binding at 0.3 µM (RIOK3; [3]): 89%
remaining binding at 0.3 µM [1, 3]: 80%
remaining binding at 0.3 µM (PHKG2; [3]): 81%
remaining binding at 0.3 µM (IRAK3; [3]): 86%
remaining binding at 0.3 µM (TRKA; [3]): 82%
remaining binding at 0.3 µM (VEGFR2; [3]): 95%

CC#CC(=O)N1CC[C@@H](n2c(=O)n(-c3ccc(Oc4ccccc4)cc3)c3c(N)ncnc32)C1 [Tirabrutinib]
remaining binding at 0.3 µM (FER; [4]): 93%
remaining binding at 0.3 µM (SLK; [4]): 93%
remaining binding at 0.3 µM [1, 4]: 79%
remaining binding at 0.3 µM (MET(M1250T); [4]): 93%
remaining binding at 0.3 µM (PHKG2; [4]): 93%
remaining binding at 0.3 µM (p38-delta; [4]): 94%
remaining binding at 0.3 µM (IRAK3; [4]): 80%
remaining binding at 0.3 µM (TRKA; [4]): 83%

C=CC(=O)N1CCC([C@@H]2CCNc3c(C(N)=O)c(-c4ccc(Oc5ccccc5)cc4)nn32)CC1 [Zanubrutinib]
remaining binding at 0.3 µM (FER; [5]): 100%
remaining binding at 0.3 µM (SLK; [5]): 99%
remaining binding at 0.3 µM (RIOK3; [5]): 100%
remaining binding at 0.3 µM [1, 5]: 88%
remaining binding at 0.3 µM (MET(M1250T); [5]): 100%
remaining binding at 0.3 µM (PHKG2; [5]): 92%
remaining binding at 0.3 µM (p38-delta; [5]): 100%
remaining binding at 0.3 µM (IRAK3; [5]): 91%
remaining binding at 0.3 µM (TRKA; [5]): 99%
remaining binding at 0.3 µM (VEGFR2; [5]): 100%
